The supplement of paper PMC10307832

Assays:
Experiment in all cases: relative viability (nuclei count vs DMSO), 5 days (fraction); higher = more cells survive
GSK126 + Crizotinib = compound: CC[C@H](C)N1C=C(C2=C(C=C(C=C21)C3=CN=C(C=C3)N4CCNCC4)C(=O)NCC5=C(C=C(NC5=O)C)C)C [GSK126] + C[C@@H](Oc1cc(-c2cnn(C3CCNCC3)c2)cnc1N)c1c(Cl)ccc(F)c1Cl [Crizotinib] (partner 1 µM)
Method in brief: (§1)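 For relative viability, nuclei counts in treated wells were divided by those in vehicle wells. Lung cancer cell lines had been pin-tool dosed in 1536-well plates the day after seeding and cultured for 5 days, then fixed and stained in one step (final 0.05% Triton X-100, 1% formaldehyde, 1 ug/ml Hoechst) and imaged at 4×. Doses were one drug alone or a fixed anchor-drug dose plus five library-drug doses (not always all listed) in √10 steps, and values are duplicate-plate medians.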

Carboplatin + Dasatinib = compound: C1CC(C1)(C(=O)O)C(=O)O.[NH2-].[NH2-].[Pt+2] [Carboplatin] + Cc1nc(Nc2ncc(C(=O)Nc3c(C)cccc3Cl)s2)cc(N2CCN(CCO)CC2)n1 [Dasatinib] (partner 0.075 µM)
Method in brief: as §1

Carboplatin + Navitoclax = compound: C1CC(C1)(C(=O)O)C(=O)O.[NH2-].[NH2-].[Pt+2] [Carboplatin] + CC1(C)CCC(c2ccc(Cl)cc2)=C(CN2CCN(c3ccc(C(=O)NS(=O)(=O)c4ccc(N[C@H](CCN5CCOCC5)CSc5ccccc5)c(S(=O)(=O)C(F)(F)F)c4)cc3)CC2)C1 [Navitoclax] (partner 0.5 µM)
Method in brief: as §1

Carboplatin + Foretinib = compound: C1CC(C1)(C(=O)O)C(=O)O.[NH2-].[NH2-].[Pt+2] [Carboplatin] + COc1cc2c(Oc3ccc(NC(=O)C4(C(=O)Nc5ccc(F)cc5)CC4)cc3F)ccnc2cc1OCCCN1CCOCC1 [Foretinib] (partner 0.25 µM)
Method in brief: as §1

## UMC-11
GSK126 + Crizotinib; first compound 0.08 µM
  relative viability: 0.723
GSK126 + Crizotinib; first compound 0.253 µM
  relative viability: 0.689
GSK126 + Crizotinib; first compound 0.8 µM
  relative viability: 0.604
GSK126 + Crizotinib; first compound 2.53 µM
  relative viability: 0.523
GSK126 + Crizotinib; first compound 8 µM
  relative viability: 0.525
Carboplatin + Dasatinib; first compound 0.08 µM
  relative viability: 0.515
Carboplatin + Dasatinib; first compound 0.253 µM
  relative viability: 0.501
Carboplatin + Dasatinib; first compound 0.8 µM
  relative viability: 0.461
Carboplatin + Dasatinib; first compound 2.53 µM
  relative viability: 0.502
Carboplatin + Dasatinib; first compound 8 µM
  relative viability: 0.491
Carboplatin + Navitoclax; first compound 0.08 µM
  relative viability: 0.325
Carboplatin + Navitoclax; first compound 0.253 µM
  relative viability: 0.355
Carboplatin + Navitoclax; first compound 0.8 µM
  relative viability: 0.342
Carboplatin + Navitoclax; first compound 2.53 µM
  relative viability: 0.313
Carboplatin + Navitoclax; first compound 8 µM
  relative viability: 0.256
Carboplatin + Foretinib; first compound 0.08 µM
  relative viability: 1.03
Carboplatin + Foretinib; first compound 0.253 µM
  relative viability: 1.03
Carboplatin + Foretinib; first compound 0.8 µM
  relative viability: 1.06
Carboplatin + Foretinib; first compound 2.53 µM
  relative viability: 0.941
Carboplatin + Foretinib; first compound 8 µM
  relative viability: 0.718
